Earlier results on two compounds are cited in patent US20180291400A1, “METHODS AND COMPOSITIONS TO INCREASE HUMAN SOMATIC CELL NUCLEAR TRANSFER (SCNT) EFFICIENCY BY REMOVING HISTONE H3-LYSINE TRIMETHYLATION, AND DERIVATION OF HUMAN NT-ESC” (CHILDREN'S MEDICAL CENTER CORPORATION, priority 2015, published 2018).

One data set has as its target SUV39h2 (Homo sapiens, UniProt Q9H5I1).

SUV39h2, sequence (Q9H5I1 whole entry): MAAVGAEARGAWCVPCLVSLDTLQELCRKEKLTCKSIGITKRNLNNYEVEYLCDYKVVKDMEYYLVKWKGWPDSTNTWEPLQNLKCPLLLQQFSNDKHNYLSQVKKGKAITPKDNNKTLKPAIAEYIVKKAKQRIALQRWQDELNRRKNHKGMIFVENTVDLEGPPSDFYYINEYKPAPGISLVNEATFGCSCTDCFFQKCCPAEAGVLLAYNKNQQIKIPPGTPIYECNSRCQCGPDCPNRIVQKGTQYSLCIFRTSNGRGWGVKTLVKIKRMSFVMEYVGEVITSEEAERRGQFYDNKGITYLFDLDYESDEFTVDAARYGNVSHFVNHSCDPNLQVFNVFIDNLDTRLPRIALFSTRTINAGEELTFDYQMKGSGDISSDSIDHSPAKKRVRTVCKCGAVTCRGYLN

Regarding `Nc1nccc2c1ncn2[C@@H]1C=C(CO)[C@@H](O)[C@H]1O` [DZNep, 3-Deazaneplanocin A], in the data set on SETDB1 H3K9me3 HMTase, the “levels of H3K27me3 and H3K9me3” value was “reduced levels of both H3K27me3 and H3K9me3”. As to `COc1cc2c(NC3CCN(C(C)C)CC3)nc(C3CCCCC3)nc2cc1OCCCN1CCCC1` [UNC0638, 2-Cyclohexyl-N-(1-isopropylpiperidin-4-yl)-6-methoxy-7-(3-(pyrrolidin-1-yl)propoxy)quinazolin-4-amine], the IC50 – broadly, the point on the concentration scale where inhibition reaches its midpoint – at SUV39h2 was over 10 µM.
